# From patent US20240373849A1, “INSECT NEUROPEPTIDE ANALOGUES” (THE UNIVERSITY COURT OF THE UNIVERSITY OF GLASGOW, priority 2020, published 2024)
# Several values for one entry are separate records, joined by “and”; a condition that tells them apart may be missing. Identical values can stand only once. Like-named read-outs stand apart in the source and are kept apart here. Square brackets hold non-standard residues; d marks the D form. * marks the point of attachment. Guanidyl = -C(=N+Me2)NMe2 on the N-terminal amine (tetramethylguanidyl cap), CN(C)C(=[N+](C)C)*; NMeL = CN[C@@H](CC(C)C)C(=O)O; NMeV = CN[C@H](C(=O)O)C(C)C; NMeA = CN[C@@H](C)C(=O)O; Aib = CC(C)(N)C(=O)O
# How the values were obtained:
# [1] = system: bumblebees (Bombus terrestris); assay: Bumblebee acute oral toxicity test; type: in vivo; conditions: for safety towards B. terrestris in the bumblebee oral toxicity assay: in vivo
# Method: Oral toxicity against bumblebees (Bombus terrestris) was determined as previously described:
# OECD (2017), Test No. 247: Bumblebee, Acute Oral Toxicity Test, OECD Guidelines for the Testing of Chemicals, Section 2, OECD Publishing, Paris, https://doi.org/10.1787/9789264284128-en.
# Example data are provided for peptides, AH56, AH257, AH259 in Tables 4, 5 below. […]
# Data were acquired for: feeding behaviour—weight of liquid consumed pre- and post-treatment; lethality (days).
# There was no negative impact on feeding behaviour from capa peptides. Acute bumblebee toxicity was also assessed for other peptide candidates including: AH270, PEG270. Overall, capa peptides are bee safe.
# CapaR = target: T1, CapaR (Drosophila melanogaster, UniProt Q8ITC7); assay: Measurement of intracellular Ca2+ in S2 cells transfected with CapaR (agonist response); type: cell-based; conditions: 10^−7 M; activity normalised to that of native Capa2 (designated 100%)
# T1 construct: transiently transfected with the apoaequorin ORF; expressed in transfected cells; host or cells: Drosophila melanogaster S2 cells, transient transfection, expression induced with CuSO4
# T1 sequence (Q8ITC7 1-477): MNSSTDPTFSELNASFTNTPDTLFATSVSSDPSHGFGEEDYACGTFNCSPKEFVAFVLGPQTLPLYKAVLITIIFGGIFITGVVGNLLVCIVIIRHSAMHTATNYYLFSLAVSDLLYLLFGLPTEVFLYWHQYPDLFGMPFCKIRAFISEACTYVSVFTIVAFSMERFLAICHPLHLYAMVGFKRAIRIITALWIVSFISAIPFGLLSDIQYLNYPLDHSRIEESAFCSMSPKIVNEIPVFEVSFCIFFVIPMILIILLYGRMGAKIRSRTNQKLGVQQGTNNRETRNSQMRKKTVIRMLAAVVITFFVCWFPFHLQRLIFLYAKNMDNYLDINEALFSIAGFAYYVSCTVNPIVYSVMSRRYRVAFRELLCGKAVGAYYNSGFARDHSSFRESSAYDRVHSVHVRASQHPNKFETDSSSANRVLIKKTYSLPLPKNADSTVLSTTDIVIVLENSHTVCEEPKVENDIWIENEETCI
# Method: Drosophila melanogaster S2 cells, cultured under standard conditions (1) were transiently transfected with the apoaequorin ORF (Radford J C, Davies S A, Dow J A. Systematic G-protein-coupled receptor analysis in Drosophila melanogaster identifies a leucokinin receptor with novel roles. J Biol Chem. 2002; 277:38810-38817) and a receptor ORF construct, and expression induced using CuSO4. Transfected S2 cells were harvested and incubated with 2.5 μM coelenterazine in the dark at RT for 1-2 h as described (ibid). 25,000 cells were then placed in 135 μl Schneider's medium supplemented with 10% FCS in a well of a white polystyrene 96-well plate (Berthold Technologies). Bioluminescence recordings were carried out using a Mithras LB940 automated 96-well plate reader (Berthold Technologies) and MikroWin software. 15 μl of each of different peptides were applied to final concentrations as required.
# Peptides were tested at 10^−7M.
# At the end of each recording samples were disrupted by the addition of 100 μl lysis solution, and the [Ca^2+] concentrations calculated as previously described (Rosay P, Davies S A, Yu Y, Sozen A, Kaiser K, et al. Cell-type specific calcium signalling in a Drosophila epithelium. J Cell Sci. 1997; 110:1683-1692).
# For the Capa1 and Capa2 peptides, the relevant native control peptide (D. melanogaster Capa1 or Capa2 respectively) was used as a control. Control agonist activity was normalised to 100% and activity of neuropeptide analogues is expressed relative to that.
# [2] = target: T2, Drosophila melanogaster capa GPCR, capaR (Drosophila melanogaster, UniProt Q8ITC7 1-477); assay: cell-based or functional assay
# T2 sequence (looked up): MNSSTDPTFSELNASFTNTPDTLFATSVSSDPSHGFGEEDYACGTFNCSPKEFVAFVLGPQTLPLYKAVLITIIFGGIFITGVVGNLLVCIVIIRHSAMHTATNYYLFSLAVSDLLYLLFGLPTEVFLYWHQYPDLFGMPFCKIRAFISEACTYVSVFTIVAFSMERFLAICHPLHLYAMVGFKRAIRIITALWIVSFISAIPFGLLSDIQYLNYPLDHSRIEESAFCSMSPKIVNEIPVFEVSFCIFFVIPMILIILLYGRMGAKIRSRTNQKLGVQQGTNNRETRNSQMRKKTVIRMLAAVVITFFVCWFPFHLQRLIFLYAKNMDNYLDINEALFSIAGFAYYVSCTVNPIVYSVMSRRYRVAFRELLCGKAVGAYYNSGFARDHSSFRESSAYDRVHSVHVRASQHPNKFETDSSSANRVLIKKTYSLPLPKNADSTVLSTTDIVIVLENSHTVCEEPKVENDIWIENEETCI
# [3] = target: T2, Drosophila melanogaster capa GPCR, capaR; assay: cell-based or functional assay; remark: listed apart in the source
# [4] = Table 11, individual bees, peptide 1 × 10 − 5M or Spirotetramat 25 uM
molecule,measurement,setting,value
"CC(C)C[C@H](NC(=O)CCCCCN)C(=O)N[C@H](C(=O)N(C)[C@@H](C)C(=O)N[C@@H](Cc1ccccc1)C(=O)N1CCC[C@H]1C(=O)N[C@@H](CCCNC(=N)N)C(=O)N(C)[C@H](C(N)=O)C(C)C)C(C)C [AH270, H-Ahx-LV-(Me)A-FPR-(Me)V-NH2]","Liquid post exposure (weight), Mean","[1]; Table 11, group mean, n=10",0.7794 g
same,"liquid consumed per day post exposure, Mean","[1]; Table 11, group mean, n=10",0.1949 g
same,Liquid post exposure (weight),[1]; [4],0.9262 g and 0.7170 g and 1.8815 g and 0.8535 g and 0.6307 g and 0.4568 g and 0.3007 g and 0.5227 g and 1.1365 g and 0.3679 g
same,days alive,[1]; [4],4 days
same,liquid consumed per day post exposure,[1]; [4],0.2316 g and 0.1793 g and 0.4704 g and 0.2134 g and 0.1577 g and 0.1142 g and 0.0752 g and 0.1307 g and 0.2841 g and 0.0920 g
same,safety towards B. terrestris in the bumblebee oral toxicity assay,[1],safe
same,CapaR Ca^2+ Agonist response,CapaR,85%
"CC(C)C[C@H](N=C(N(C)C)N(C)C)C(=O)N[C@H](C(=O)N[C@@H](C)C(=O)N[C@@H](Cc1ccccc1)C(=O)N1CCC[C@H]1C(=O)N[C@@H](CCCNC(=N)N)C(=O)N(C)[C@H](C(N)=O)C(C)C)C(C)C [AH257, Guanidyl-LVAFPR-(Me)V-NH2]",lethal effect on bumblebees,"[1]; 1×10^−5 M in 50% sucrose, 0.1% ATPlus, oral",No lethal effect
same,dead?,"[1]; Table 10, individual bees, peptide ×10−5M or imidacloprid 28.3 uM in 50% sucrose, 0.1% ATPlus",2
same,safety towards B. terrestris in the bumblebee oral toxicity assay,[1],safe
same,Est weight sucrose consumed post testing/day,"[1]; individual bees, peptide ×10−5M or imidacloprid 28.3 uM in 50% sucrose, 0.1% ATPlus",0.4789 grams/day and 0.0824 grams/day and 0.2612 grams/day and 0.3450 grams/day and 0.1265 grams/day and 0.4161 grams/day and 0.2912 grams/day and 0.3677 grams/day and 0.2298 grams/day and 0.3016 grams/day and 0.2869 grams/day
same,"Feeding impacted? (+ve feeding increased post pep, −ve feeding decreased post pep)","[1]; individual bees, post minus pre testing sucrose consumption",0.0902 grams/day and −0.0881 grams/day and 0.0770 grams/day and 0.0006 grams/day and −0.0429 grams/day and −0.0008 grams/day and −0.0193 grams/day and 0.2039 grams/day and 0.0347 grams/day and 0.0995 grams/day and 0.0416 grams/day
same,"T-test outcome, sucrose consumed Pre vs Post",[1]; per treatment group,No sig effect
same,CapaR Ca^2+ Agonist response,CapaR,85%
H-[NMeL]YAFARV-NH2 (SMILES CN[C@@H](CC(C)C)C(=O)N[C@@H](Cc1ccc(O)cc1)C(=O)N[C@@H](C)C(=O)N[C@@H](Cc1ccccc1)C(=O)N[C@@H](C)C(=O)N[C@@H](CCCNC(=N)N)C(=O)N[C@H](C(N)=O)C(C)C) [AH383 (H-(Me)L-YAFARV-NH2)],CapaR Ca^2+ Agonist response at 10^-7 M,[2],26 % of native Capa1 activity
H-LY[Aib]FARV-NH2 (SMILES CC(C)C[C@H](N)C(=O)N[C@@H](Cc1ccc(O)cc1)C(=O)NC(C)(C)C(=O)N[C@@H](Cc1ccccc1)C(=O)N[C@@H](C)C(=O)N[C@@H](CCCNC(=N)N)C(=O)N[C@H](C(N)=O)C(C)C) [AH387 (H-LY-Aib-FARV-NH2)],CapaR Ca^2+ Agonist response at 10^-7 M,[2],17 % of native Capa1 activity
H-LYAFAR[NMeV]-NH2 (SMILES CC(C)C[C@H](N)C(=O)N[C@@H](Cc1ccc(O)cc1)C(=O)N[C@@H](C)C(=O)N[C@@H](Cc1ccccc1)C(=O)N[C@@H](C)C(=O)N[C@@H](CCCNC(=N)N)C(=O)N(C)[C@H](C(N)=O)C(C)C) [AH380 (H-LYAFAR-(Me)V-NH2)],CapaR Ca^2+ Agonist response at 10^-7 M,[2],14 % of native Capa1 activity
Guanidyl-L[NMeV]AFPRV-NH2 (SMILES CC(C)C[C@H](NC(N(C)C)=[N+](C)C)C(=O)N(C)[C@H](C(=O)N[C@@H](C)C(=O)N[C@@H](Cc1ccccc1)C(=O)N1CCC[C@H]1C(=O)N[C@@H](CCCNC(=N)N)C(=O)N[C@H](C(N)=O)C(C)C)C(C)C) [AH259 (Guanidyl-L-(Me)V-AFPRV-NH2)],CapaR Ca^2+ Agonist response at 10^-7 M,[3],12 % of native Capa2 activity
Guanidyl-LVAFPR[NMeV]-NH2 (SMILES CC(C)C[C@H](NC(N(C)C)=[N+](C)C)C(=O)N[C@H](C(=O)N[C@@H](C)C(=O)N[C@@H](Cc1ccccc1)C(=O)N1CCC[C@H]1C(=O)N[C@@H](CCCNC(=N)N)C(=O)N(C)[C@H](C(N)=O)C(C)C)C(C)C) [AH257 (Guanidyl-LVAFPR-(Me)V-NH2)],CapaR Ca^2+ Agonist response at 10^-7 M,[3],85 % of native Capa2 activity
H-LYAFARV-NH2 [AH188 (H-LYAFARV-NH2)],CapaR Ca^2+ Agonist response at 10^-7 M,[2],64 % of native Capa1 activity
H-LY[NMeA]FARV-NH2 (SMILES CC(C)C[C@H](N)C(=O)N[C@@H](Cc1ccc(O)cc1)C(=O)N(C)[C@@H](C)C(=O)N[C@@H](Cc1ccccc1)C(=O)N[C@@H](C)C(=O)N[C@@H](CCCNC(=N)N)C(=O)N[C@H](C(N)=O)C(C)C) [AH382 (H-LY-(Me)A-FARV-NH2)],CapaR Ca^2+ Agonist response at 10^-7 M,[2],36 % of native Capa1 activity
